Test results reported in patent EP4682145A1, “BENZOHETEROCYCLIC COMPOUND, AND PREPARATION METHOD THEREFOR AND USE THEREOF” (Cascade Pharmaceuticals, Inc., priority 2023, dated 2024).

Experiments:
[1] = biological target: T1, human FFAR1 (GPR40) (Homo sapiens, UniProt O14842); experiment: NFAT-RE-based reporter gene activity assay (Dual-Glo luciferase) for GPR40 agonistic activity in co-transfected HEK293T cells; type: cell-based; conditions: 4-hour treatment; for Efficacy (%): class symbols
T1 construct: Flag; expressed in transfected cells; host or cells: HEK293T
Procedure, shortened: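 HEK293T cells co-transfected with human FFAR1, NFAT-RE firefly luciferase and TK-Renilla plasmids; 24 h later treated 4 h with 10 half-log compound dilutions from 1 µM. Firefly/Renilla ratio normalised to DMSO; EC50 from four-parameter fit.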

[2] = Pharmacokinetic evaluation in ICR mice (intravenous and gavage); type: in vivo; conditions: for CL_obs / Vss_obs / half-life: Intravenous Administration (5 mg/kg); for bioavailability: gavage 10 mg/kg versus intravenous 5 mg/kg
Method: The bioavailability and pharmacokinetic behavior of the compounds were evaluated in mice. 6 male ICR mice with similar body weights were selected, among which 3 mice were administered a single gavage dose of 10 mg/kg, and the other 3 mice were intravenously administered a single dose of 5 mg/kg. Blood samples were collected at 5 minutes (intravenous administration), 15 minutes, 30 minutes, 1 hour, 2 hours, 4 hours, and 7 hours after administration. The plasma samples were analyzed for concentration by LCMS/MS, and the pharmacokinetic parameters of the compounds were analyzed using the PKSolver free tool and non-compartmental analysis (NCA) software.
Experimental animals: Each compound test group included 6 healthy male ICR mice, weighing 18-25 g, purchased from Charles River, which were randomly divided into 2 groups with 3 mice each.
Preparation of formulations: A certain amount of the compound was weighed and added to 2% DMSO + 15% Solutol + 83% physiological saline to form a clear solution.
Dosage: ICR mice were fasted overnight and administered the compound at a dose of 10 mg/kg via gavage or 5 mg/kg via intravenous injection. The dosing volumes for gavage and intravenous administration were 10 mL/kg and 5 mL/kg, respectively. Uniform feeding was conducted 2 hours after administration.
Sample collection: Approximately 30 µL of blood was collected from the great saphenous vein at 5 minutes (intravenous administration), 15 minutes, 30 minutes, 1 hour, 2 hours, 4 hours, and 7 hours after administration. The blood was placed into commercially available tubes containing K2-EDTA. The blood samples were then centrifuged at 4°C and 4600 rpm for 5 minutes to obtain plasma samples. All plasma samples were rapidly frozen on dry ice and maintained at -70°C until LCMS/MS analysis was performed.
Sample preparation: 10 µL of plasma sample was aspirated and precipitated with a methanol solution containing 50 nmol/L of α-naphthoflavone (internal standard). The mixture was thoroughly mixed and centrifuged at 4°C and 14000 rpm for 5 minutes. Then, 75 µL of the supernatant was mixed with 75 µL of methanol for LCMS/MS analysis.

[3] = system: C57BL6/J mice; experiment: In vivo pharmacodynamic assay for non-alcoholic fatty liver disease (high-fat, high-cholesterol, high-fructose diet mice); conditions: 1 mpk oral gavage once daily for 28 days
Method: Normal male C57BL6/J mice ([…]) were fed a high-fat, high-cholesterol, high-fructose diet (D09100310, Research Diets) for 20 weeks. Based on body weight and biochemical data, the mice were randomly divided into groups, with 6 mice per group. The compound 169 (0.03, 0.1, and 0.6 mg/kg) was administered via oral gavage. The positive control was MGL3196 (1 mg/kg), and the blank control group consisted of mice of the same strain and age fed a normal diet for the same duration. The blank control and model control groups were given the vehicle (15% solutol + 85% DDW), totaling 6 groups. Administration was performed once daily for 28 days. After overnight fasting, on day 29 at the experimental endpoint, blood was collected from the heart after CO2 euthanasia. Serum ALT and AST biochemical indicators were measured, and liver tissue was harvested for hepatic hydroxyproline content determination.
Blood was collected using anticoagulant-free tubes, allowed to stand at room temperature for 30 minutes, and then centrifuged at 4000 rpm for 10 minutes to separate serum, which was tested by Dian Diagnostics. Approximately 50 mg of liver tissue was taken from each mouse and tested according to the hydroxyproline assay kit method (Nanjing Jiancheng, Cat. No.: A030-2-1).
Data were expressed as mean ± standard deviation. One-way ANOVA was employed for statistical analysis, with p < 0.05 considered statistically significant.

[4] = mouse, plasma, po, Gavage Administration (10 mg/kg)
[5] = mouse, plasma, po, Gavage Administration (10 mg/kg), read-out: AUC0-7 h
[6] = male, ICR, mouse, plasma, po, Gavage Administration (10 mg/kg)

T1 sequence (O14842 whole entry): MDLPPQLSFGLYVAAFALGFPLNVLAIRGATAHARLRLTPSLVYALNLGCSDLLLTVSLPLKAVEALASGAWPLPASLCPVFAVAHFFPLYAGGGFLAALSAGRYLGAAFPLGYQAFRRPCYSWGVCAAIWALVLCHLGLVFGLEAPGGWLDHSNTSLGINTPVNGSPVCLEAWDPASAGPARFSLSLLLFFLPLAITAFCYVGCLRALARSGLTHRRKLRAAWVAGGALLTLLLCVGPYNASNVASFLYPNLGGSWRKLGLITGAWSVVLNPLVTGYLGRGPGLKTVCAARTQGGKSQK

## COc1cccc(N2CCC(c3oc4cc([C@@H](CC(=O)O)C5CC5)ccc4c3-c3cccc(C(C)(C)C)c3)CC2)c1 [Compound 12]
[1]
  EC50: 10 to 100 nM
  Efficacy (%): †† (150 ≥ Efficacy (%) > 100)
[2]
  CL_obs: 1.9 mL/min/kg
  Vss_obs: 520 mL/kg
[2]; mouse, plasma
  half-life: 301 min
[2]; [4]
  Cmax: 6580 ng/mL
  Tmax: 2 h
[2]; [5]
  AUC(0-t) at 7 h: 38000 ng·h/mL
[2]; mouse, plasma, po
  bioavailability: 44.6%

## CC(C)c1cc(Oc2c(Cl)cc(-n3nc(C#N)c(=O)[nH]c3=O)cc2Cl)n[nH]c1=O [MGL3196, reference compound]
[3]; liver
  Hepatic Hydroxyproline: 173.63 ± 32.06 µg/g
  Total Liver Hydroxyproline (µg/liver): 313.58±98.24 µg/liver
[3]; serum
  ALT (U/L): 140±63.06 U/L
  AST (U/L): 242±67.42 U/L

## COc1ccc(F)c(N2CCC(c3oc4cc([C@@H](CC(=O)O)C5CC5)ccc4c3-c3cccc(C(C)(C)C)c3)CC2)c1 [Compound 166]
[1]
  EC50: 10 to 100 nM
  Efficacy (%): †† (150 ≥ Efficacy (%) > 100)
[2]
  CL_obs: 1.6 mL/min/kg
  Vss_obs: 668 mL/kg
[2]; mouse, plasma
  half-life: 402 min
[2]; [4]
  Cmax: 4950 ng/mL
  Tmax: 4 h
[2]; [5]
  AUC(0-t) at 7 h: 48100 ng·h/mL
[2]; mouse, plasma, po
  bioavailability: 48%

## COc1cccc(N2CCC(c3oc4cc([C@@H](CC(=O)O)C5CC5)ccc4c3-c3cnn(C(C)(C)C)c3)CC2)c1 [Compound 38]
[1]
  EC50: 10 to 100 nM
  Efficacy (%): ††† (Efficacy (%) > 150)
[2]
  CL_obs: 2.3 mL/min/kg
  Vss_obs: 405 mL/kg
[2]; mouse, plasma
  half-life: 145 min
[2]; [4]
  Cmax: 8600 ng/mL
  Tmax: 2 h
[2]; [5]
  AUC(0-t) at 7 h: 55400 ng·h/mL
[2]; mouse, plasma, po
  bioavailability: 77.4%

## COc1ccc(F)c(N2CCC(c3oc4cc([C@@H](CC(=O)O)C5CC5)ccc4c3-c3cnn(C(C)(C)C)c3)CC2)c1 [Compound 89]
[1]
  EC50: 100 to 500 nM
  Efficacy (%): †† (150 ≥ Efficacy (%) > 100)
[2]
  CL_obs: 1.3 mL/min/kg
  Vss_obs: 546 mL/kg
[2]; male, ICR, mouse, plasma
  half-life: 328 min
[2]; male, ICR, mouse, plasma, oral
  bioavailability: 73.7%
[2]; [6]
  Cmax: 11100 ng/mL
  Tmax: 2 h
[2]; male, ICR, mouse, plasma, po, Gavage Administration (10 mg/kg), read-out: AUC0-7 h
  AUC(0-t): 92200 ng·h/mL

## COc1cccc(N2CCC(c3oc4cc(C(CC(=O)O)C5CC5)ccc4c3C(=O)Nc3cccc(F)c3F)CC2)c1 (stereo not drawn) [Compound 254]
[1]
  EC50: 100 to 500 nM
  Efficacy (%): ††† (Efficacy (%) > 150)

## CC(C)(C)c1ccc(-c2c(C3CCN(c4ccc5c(c4)OCO5)CC3)oc3cc([C@@H](CC(=O)O)C4CC4)ccc23)cc1 [Compound 213]
[1]
  EC50: 10 to 100 nM
  Efficacy (%): †† (150 ≥ Efficacy (%) > 100)

## COc1cccc(N2CCC(c3oc4cc(C(CC(=O)O)C5CC5)ccc4c3C(=O)NC34CC5CC(C)(CC(C)(C5)C3)C4)CC2)c1 (stereo not drawn) [Compound 351]
[1]
  EC50: 10 to 100 nM
  Efficacy (%): †† (150 ≥ Efficacy (%) > 100)

## CC(C)(C)c1cccc(-c2c(C3CCN(c4ccccc4Cl)CC3)oc3cc(C(CC(=O)O)C4CC4)ccc23)c1 (stereo not drawn) [Compound 22]
[1]
  EC50: 100 to 500 nM
  Efficacy (%): †† (150 ≥ Efficacy (%) > 100)

## COc1ccc(F)c(N2CCC(c3oc4cc([C@@H](CC(=O)O)C5CC5)ccc4c3-c3ccc(C)cc3)CC2)c1 [Compound 161]
[1]
  EC50: 100 to 500 nM
  Efficacy (%): † (100 ≥ Efficacy (%) > 50)

## COc1cccc(N2CCC(c3oc4cc([C@@H](CC(=O)O)C5CC5)ccc4c3-c3ncc(C(C)C)s3)CC2)c1 [Compound 112]
[1]
  EC50: 10 to 100 nM
  Efficacy (%): †† (150 ≥ Efficacy (%) > 100)

## COc1cccc(N2CCC(c3oc4cc(C(CC(=O)O)C5CC5)ccc4c3C(=O)Nc3nc4ccccc4s3)CC2)c1 (stereo not drawn) [Compound 297]
[1]
  EC50: 100 to 500 nM
  Efficacy (%): †† (150 ≥ Efficacy (%) > 100)

## COc1ccc(F)c(N2CCC(c3oc4cc(C(CC(=O)O)C5CC5)ccc4c3C3=CCC(C(C)(C)C)CC3)CC2)c1 (stereo not drawn) [Compound 380]
[1]
  EC50: > 500 nM
  Efficacy (%): †† (150 ≥ Efficacy (%) > 100)

## COc1cccc(N2CCC(c3oc4cc([C@@H](CC(=O)O)C5CC5)ccc4c3C(OCC(C)C)c3ccc(C)cc3)CC2)c1 (stereo partly drawn) [Compound 427]
[1]
  EC50: 100 to 500 nM
  Efficacy (%): ††† (Efficacy (%) > 150)

## COc1cccc(N2CCC(c3oc4cc([C@@H](CC(=O)O)C5CC5)ccc4c3C(=O)Nc3ccccc3C)CC2)c1F [Compound 324]
[1]
  EC50: ≤ 10 nM
  Efficacy (%): †† (150 ≥ Efficacy (%) > 100)

## COc1cccc(N2CCC(c3oc4cc([C@@H](CC(=O)O)C5CC5)ccc4c3C(=O)Nc3ccccc3OC(F)(F)F)CC2)c1 [Compound 240]
[1]
  EC50: 100 to 500 nM
  Efficacy (%): †† (150 ≥ Efficacy (%) > 100)

## COc1cccc(N2CCC(c3oc4cc(C(CC(=O)O)C5CC5)ccc4c3-c3cccc(C(C)(C)C)c3)CC2)c1 (stereo not drawn) [Compound 11]
[1]
  EC50: 10 to 100 nM
  Efficacy (%): ††† (Efficacy (%) > 150)

## COc1cccc(N2CCC(c3oc4cc([C@@H](CC(=O)O)C5CC5)ccc4c3C(C)OC)CC2)c1 (stereo partly drawn) [Compound 406]
[1]
  EC50: 100 to 500 nM
  Efficacy (%): ††† (Efficacy (%) > 150)

## CCCCCCC(C)(C)c1nnc(-c2c(C3CCN(c4cccc(OC)c4)CC3)oc3cc(C(CC(=O)O)C4CC4)ccc23)o1 (stereo not drawn) [Compound 452]
[1]
  EC50: 10 to 100 nM
  Efficacy (%): †† (150 ≥ Efficacy (%) > 100)

## COc1cccc(N2CCC(c3oc4cc([C@@H](CC(=O)O)C5CC5)ccc4c3C(=O)Nc3cc(C)ccc3F)CC2)c1 [Compound 253]
[1]
  EC50: ≤ 10 nM
  Efficacy (%): ††† (Efficacy (%) > 150)

## COc1ccc(F)c(N2CCC(c3oc4cc(C(CC(=O)O)C5CC5)ccc4c3-c3ccc(C(=O)N4CCCC4)cc3)CC2)c1 (stereo not drawn) [Compound 200]
[1]
  EC50: 100 to 500 nM
  Efficacy (%): †† (150 ≥ Efficacy (%) > 100)

## COc1ccnc(N2CCC(c3oc4cc(C(CC(=O)O)C5CC5)ccc4c3-c3cnn(C(C)(C)C)c3)CC2)c1 (stereo not drawn) [Compound 83]
[1]
  EC50: 100 to 500 nM
  Efficacy (%): † (100 ≥ Efficacy (%) > 50)

## CSc1cccc(N2CCC(c3oc4cc(C(CC(=O)O)C5CC5)ccc4c3-c3ccc(C(C)(C)C)cc3)CC2)c1 (stereo not drawn) [Compound 26]
[1]
  EC50: 100 to 500 nM
  Efficacy (%): †† (150 ≥ Efficacy (%) > 100)

## COc1cccc(N2CCC(c3oc4cc([C@@H](CC(=O)O)C5CC5)ccc4c3-c3cccc(NC(C)C)c3)CC2)c1 [Compound 34]
[1]
  EC50: 10 to 100 nM
  Efficacy (%): †† (150 ≥ Efficacy (%) > 100)

## COc1cccc(N2CCC(c3oc4cc([C@@H](CC(=O)O)C5CC5)ccc4c3C(C)OCC3CCC3)CC2)c1 (stereo partly drawn) [Compound 418]
[1]
  EC50: 10 to 100 nM
  Efficacy (%): ††† (Efficacy (%) > 150)

## COc1cccc(N2CCC(c3oc4cc([C@@H](CC(=O)O)C5CC5)ccc4c3C(CCC(C)C)c3ccccc3)CC2)c1 (stereo partly drawn) [Compound 387]
[1]
  EC50: 10 to 100 nM
  Efficacy (%): †† (150 ≥ Efficacy (%) > 100)

## COc1cccc(N2CCC(c3oc4cc([C@@H](CC(=O)O)C5CC5)ccc4c3C(OCC(C)C)c3cccc(C)c3)CC2)c1 (stereo partly drawn) [Compound 428]
[1]
  EC50: 100 to 500 nM
  Efficacy (%): †† (150 ≥ Efficacy (%) > 100)

## COc1cccc(N2CCC(c3oc4cc(C(CC(=O)O)C5CC5)ccc4c3/C=C/C3CC3)CC2)c1 (stereo not drawn) [Compound 364]
[1]
  EC50: 100 to 500 nM
  Efficacy (%): †† (150 ≥ Efficacy (%) > 100)

## COc1cccc(N2CCC(c3oc4cc([C@@H](CC(=O)O)C5CC5)ccc4c3C(=O)N(C)c3cc([N+](=O)[O-])ccc3Cl)CC2)c1 [Compound 274]
[1]
  EC50: 100 to 500 nM
  Efficacy (%): †† (150 ≥ Efficacy (%) > 100)

## COc1ccc(F)c(N2CCC(c3oc4cc(C(CC(=O)O)C5CC5)ccc4c3C(=O)NC(C)(C)C)CC2)c1 (stereo not drawn) [Compound 305]
[1]
  EC50: 100 to 500 nM
  Efficacy (%): †† (150 ≥ Efficacy (%) > 100)
